Experimental data published in patent EP0326331B1, “Substituted quinolines and cinnolines” (Dow AgroSciences LLC, priority 1988, dated 1989).

Experiments:
Format in all cases: in vivo
[1] = test system: southern armyworm (Spodopetra eridania Cramer); experiment: Mite/insect screen, SAW; details: percent mortality, foliar spray on squash; for mortality at 400 ppm / mortality at 200 ppm: Spodoptera eridania, foliar, read-out: SAW RESULTS %
Summary of the method: (§1)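 Compounds dissolved in 50:50 acetone/alcohol containing sulfonate/nonionic emulsifier blends, then diluted with water to the indicated concentrations. Leaves sprayed on both surfaces to runoff at 10 psi and dried one hour. Percent mortality scored after standard exposure periods.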

[2] = test system: corn rootworm; experiment: Mite/insect screen, CRW; details: percent mortality; for mortality at 24 ppm / mortality at 12 ppm: read-out: CRW RESULTS %
Summary of the method: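 Compounds were dissolved in 50:50 acetone/alcohol containing sulfonate/nonionic emulsifier blends (23 g/L plus 13 g/L), then diluted with water to the test concentrations. Percent mortality was scored after standard exposure periods.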

[3] = test system: Erysiphe graminis tritici (powdery mildew); experiment: Test 1 greenhouse foliar spray screen, powdery mildew on wheat; details: Test 1, foliar spray on wheat, disease control rating at 400 ppm / 100 ppm; for pest or weed control at 400 ppm: Blumeria graminis, foliar, read-out: POWD MDEW
[4] = test system: Puccinia recondita tritici (leaf rust); experiment: Test 1 greenhouse foliar spray screen, leaf rust on wheat; details: Test 1, foliar spray on wheat, disease control rating at 400 ppm / 100 ppm; for pest or weed control at 400 ppm: Puccinia recondita, foliar
[5] = test system: melon aphids (Aphis gossypii Glover); experiment: Mite/insect screen, MA; details: percent mortality, foliar spray on squash; for mortality at 400 ppm / mortality at 200 ppm: Aphis gossypii, foliar, read-out: MA RESULTS %
Summary of the method: as §1

[6] = test system: Botrytis cinerea (gray mold); experiment: Test 1 greenhouse foliar spray screen, gray mold on grape berries; details: Test 1, spray on grape berries, disease control rating at 400 ppm / 100 ppm; for pest or weed control at 400 ppm: Botrytis cinerea, foliar
[7] = test system: Pyricularia oryzae (rice blast); experiment: whole plant or invertebrate; details: disease control rating at 400 ppm / 100 ppm; for pest or weed control at 400 ppm: Pyricularia oryzae, foliar, read-out: RICE BLAST, Test 1, foliar spray on rice
[8] = test system: Pseudoperonospora cubensis (downy mildew); experiment: Test 1 greenhouse foliar spray screen, downy mildew on squash; details: Test 1, foliar spray on squash, disease control rating at 400 ppm / 100 ppm; for pest or weed control at 400 ppm: Pseudoperonospora cubensis, foliar, read-out: DOWN MDEW
[9] = test system: Twospotted spider mites (Tetranychus urticae Koch); experiment: Mite/insect screen, SM; details: percent mortality, foliar spray on squash; for mortality at 400 ppm / mortality at 200 ppm: Tetranychus urticae, foliar, read-out: SM RESULTS %
Summary of the method: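 Activity is expressed as percent mortality at the indicated spray concentrations. Plants are sprayed to runoff on upper and lower leaf surfaces with aqueous dilutions of an acetone/alcohol emulsifiable formulation, then dried for one hour.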

| SMILES | mortality at 400 ppm ([1]; rate 400 ppm) [%] | mortality at 24 ppm ([2]; CRW rate 24.00 ppm) [%] | pest or weed control at 400 ppm [3] [%] | pest or weed control at 400 ppm [4] [%] | mortality at 400 ppm ([5]; rate 400 ppm) [%] | pest or weed control at 400 ppm [6] [%] | pest or weed control at 400 ppm [7] [%] | pest or weed control at 400 ppm [8] [%] | mortality at 400 ppm ([9]; rate 400 ppm) [%] | mortality at 200 ppm ([1]; rate 200 ppm) [%] | mortality at 12 ppm ([2]; CRW rate 12.00 ppm) [%] | mortality at 200 ppm ([5]; rate 200 ppm) [%] | mortality at 200 ppm ([9]; rate 200 ppm) [%] | further results |
| --- | --- | --- | --- | --- | --- | --- | --- | --- | --- | --- | --- | --- | --- | --- |
| CC(C)(C)c1ccc(CCCOc2ccnc3c(F)cccc23)cc1 [Example 241, 8-fluoro-4-[3-[4-(t-butyl)phenyl]propoxy]quinoline] | 0 | 0 | 0 to 19 | 0 to 19 | 0 | 0 to 19 | 0 to 19 | 0 to 19 | 0 |  |  |  |  |  |
| Clc1ccc(CCCOc2ccnc3c(Cl)cccc23)cc1 [Example 242, 8-chloro-4-[3-(4-chlorophenyl)propoxy]quinoline] | 0 | 0 | 0 to 19 | 0 to 19 | 0 | 0 to 19 | 0 to 19 | 0 to 19 | 0 | 0 | 0 | 0 | 0 |  |
| Fc1cccc2c(OCC=Cc3ccccc3)ccnc12 [Example 243, 8-fluoro-4-[(3-phenyl-2-propenyl)oxy]quinoline] | 0 | 0 | 0 to 19 | 0 to 19 | 0 | 0 to 19 | 0 to 19 | 0 to 19 | 0 |  |  |  |  |  |
| Cc1cc(OCCC2CCCCC2)c2c(Cl)ccc(C)c2n1 [Example 248, 5-chloro-4-(2-cyclohexylethoxy)-2,8-dimethylquinoline] | 0 | 0 | 20 to 89 | 0 to 19 | 0 | 0 to 19 | 0 to 19 | 0 to 19 | 0 |  |  |  |  |  |
| Cc1cc(OCCC2CCCCC2)c2cc(F)ccc2n1 [Example 249, 6-fluoro-4-(2-cyclohexylethoxy)-2-methylquinoline] | 0 | 0 | 0 to 19 | 0 to 19 | 0 | 0 to 19 | 0 to 19 | 0 to 19 | 0 |  |  |  |  |  |
| Cc1ccc(CCOc2cc(OCCc3ccc(C)cc3)c3cccc(F)c3n2)cc1 [Example 250, 8-fluoro-2,4-bis[2-(4-methylphenyl)ethoxy]quinoline] | 0 | 0 | 0 to 19 | 20 to 89 | 0 | 0 to 19 | 0 to 19 | 20 to 89 | 0 |  |  |  |  |  |
| FC(F)(F)c1ccc2c(CCCc3ccccc3)ccnc2c1 [Example 254, 4-(3-phenylpropyl)-7-(trifluoromethyl)quinoline] | 0 | 0 | 90 to 100 | 0 to 19 | 0 | 0 to 19 | 90 to 100 | 0 to 19 | 0 |  |  |  |  |  |
| Clc1cccc2c(CCCc3ccccc3)ccnc12 [Example 255, 8-chloro-4-(3-phenylpropyl)quinoline] | 0 | 0 | 20 to 89 | 90 to 100 | 0 | 0 to 19 | 90 to 100 | 20 to 89 | 0 |  |  |  |  |  |
| Fc1cccc2c(CCCc3ccc(-c4ccccc4)cc3)ccnc12 [Example 257, 4-[3-(1,1'-biphenyl)-4-ylpropyl]-8-fluoroquinoline] | 0 | 0 | 90 to 100 | 90 to 100 | 0 | 0 to 19 | 20 to 89 | 90 to 100 | 0 |  |  |  |  |  |
| CC(C)(C)c1ccc(CCOc2ccnc3ccccc23)cc1 [Example 262, 4-[2-[4-(t-butyl)phenyl]ethoxy]quinoline] | 0 | 0 | 0 to 19 | 90 to 100 | 100 | 0 to 19 | 90 to 100 | 90 to 100 | 100 | 0 | 0 | 100 | 100 |  |
| Fc1cccc2c(OCCc3ccc(-c4ccccc4)cc3)ccnc12 [Example 263, 8-fluoro-4-[2-(1,1'-biphenyl)-4-yl-ethoxy]quinoline] |  |  |  |  |  |  |  |  |  |  |  |  |  | SAW RESULTS % ([1]; rate 200 ppm): 0%; SAW RESULTS % ([1]; rate 400 ppm): 0%; CRW RESULTS % ([2]; CRW rate 12.00 ppm): 0%; CRW RESULTS % ([2]; CRW rate 24.00 ppm): 0%; POWD MDEW [3]: + (20-89% control at 400 ppm); LEAF RUST [4]: + (20-89% control at 400 ppm); MA RESULTS % ([5]; rate 200 ppm): 0%; MA RESULTS % ([5]; rate 400 ppm): 0%; GRAY MOLD [6]: - (0-19% control at 400 ppm); RICE BLAST ([7]; Test 1, foliar spray on rice): + (20-89% control at 400 ppm); DOWN MDEW [8]: - (0-19% control at 400 ppm); SM RESULTS % ([9]; rate 200 ppm): 0%; SM RESULTS % ([9]; rate 400 ppm): 0% |
| OCCc1ccc(CCOc2ccnc3c(F)cccc23)cc1 [Example 265, 8-fluoro-4-[2-[4-(2-hydroxyethyl)phenyl]ethoxy]quinoline] | 0 | 0 | 0 to 19 | 90 to 100 | 0 | 0 to 19 | 90 to 100 | 0 to 19 | 0 | 0 | 0 | 0 | 0 |  |
| COC(C)CCOc1ccnc2c(F)cccc12 (stereo not shown) [Example 266, 8-fluoro-4-[3-methoxybutoxy]quinoline] | 0 | 0 | 0 to 19 | 0 to 19 | 0 | 0 to 19 | 0 to 19 | 0 to 19 | 0 | 0 | 0 | 0 | 0 |  |
| C=CCCCOc1ccnc2c(F)cccc12 [Example 267, 8-fluoro-4-(4-pentenoxy)quinoline] | 0 | 0 | 90 to 100 | 90 to 100 | 100 | 0 to 19 | 90 to 100 | 20 to 89 | 100 | 0 | 0 | 20 | 40 |  |
| Fc1cccc2c(NCCCCc3ccccc3)ccnc12 [Example 268, 8-fluoro-N-(4-phenylbutyl)-4-quinolinamine] | 0 | 0 | 20 to 89 | 90 to 100 | 0 | 0 to 19 | 90 to 100 | 90 to 100 | 80 | 0 | 0 | 0 | 0 |  |
